{"source": "paper PMC3610872", "about": "“Full and Partial Agonists of Thromboxane Prostanoid Receptor Unveil Fine Tuning of Receptor Superactive Conformation and G Protein Activation” (PLoS ONE, 2013)", "key": {"[1]": {"molecular_target": "T1, E129V mutant human TP receptor (Homo sapiens, UniProt P21731, E129V)", "T1 construct": "expressed in transfected cells; host or cells: HEK293", "T1 sequence (P21731 1-343 E129V)": "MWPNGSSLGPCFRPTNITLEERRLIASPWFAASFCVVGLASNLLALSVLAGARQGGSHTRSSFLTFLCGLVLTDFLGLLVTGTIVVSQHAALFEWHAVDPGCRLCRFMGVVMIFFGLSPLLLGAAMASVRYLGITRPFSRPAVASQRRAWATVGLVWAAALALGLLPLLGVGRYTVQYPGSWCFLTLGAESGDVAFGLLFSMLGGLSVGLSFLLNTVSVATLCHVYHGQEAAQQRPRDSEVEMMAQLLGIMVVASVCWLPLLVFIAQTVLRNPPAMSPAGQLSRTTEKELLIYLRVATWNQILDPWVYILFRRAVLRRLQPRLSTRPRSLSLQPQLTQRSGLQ", "set-up": "method as in PMID 20383734", "details": "E129V vs WT; cited from earlier work"}, "[2]": {"molecular_target": "T2, WT human TP receptor (Homo sapiens, UniProt P21731)", "T2 construct": "expressed in transfected cells; host or cells: HEK293", "T2 sequence (P21731 1-343)": "T1 sequence (P21731 1-343 E129V) with V129E", "assay": "[3H]SQ29,548 radioligand binding (mixed-type and heterologous competition), WT receptor", "details": "HEK293 cells, competition vs 1 nM [3H]SQ29,548, 25°C 30 min, value ±%CV", "method": "(§1) Receptor expression and functional activity were monitored 48 hours after transfection. […] Heterologous competition studies involved concentrations of the indicated unlabeled ligands extending from 0.1 nM to 30 µM. After 30 min incubation at 25 °C, the reaction was stopped by aspiration of the medium, cells were washed with ice-cold PBS containing 0.2% (w/v) BSA and lysed in 0.5 N NaOH. Radioactivity was measured by liquid scintillation counting. Binding data were analyzed as described in Data and Statistical Analysis. Quantification of the total labeled inositol phosphates (IP) accumulation was performed using a conventional gravity flow column chromatography, as described previously, [19]. Briefly, the day before the assay, cells were labeled with 0,5 µCi of [myo-2-^3H]inositol (17 Ci/mmol) for 18–20 hours in serum-free, inositol-free DMEM containing 20 mM HEPES buffer, pH 7.4, and 0.5% (w/v) Albumax I. The day of the assay, media was replaced with serum-free, inositol-free DMEM containing 25 mM LiCl and cells stimulated for 30 min with the indicated agonists. After removal of the medium, cells were lysed with 10 mM formic acid and lysates were applied onto an anion exchange AG 1X-8 column, formate form, 200–400 mesh. The total IP fraction was then eluted with 2 M ammonium formate/formic acid buffer at pH 5 and radioactivity determined by liquid scintillation counting. Rescue experiments were performed essentially as above, except for a 18 hours incubation step with 1 µΜof […] followed by its removal by washing three times with ice-cold PBS containing 1 mM MgCl2 and 0.1 mM CaCl2 before starting the experiment.\n(§2) All average results are presented as mean±S.E. When indicated, ANOVA followed by post-hoc test for multiple comparisons was performed. Data from radioligand binding were evaluated by a nonlinear, least-squares curve-fitting procedure using GraphPad Prism version 4, implemented with the n-ligand m-binding site model, as described in the LIGAND computer program. Concentration-response curves were evaluated using Prism 4, which use the four parameters logistic model as described in the ALLFIT program. Parameter errors are all expressed in percentage coefficient of variation (%CV) and calculated by simultaneous analysis of at least two different independent experiments performed in duplicate or triplicate. Parameter comparison has been performed on the base of the F test for extra sum of square principle. All curves shown are computer generated.\n(§3) Thus, transfection conditions were adjusted to secure equivalent levels of receptor expression for WT and mutants as previously described, [17], [19]. […] All the experiments were conducted within this range of receptor expression, if not specified differently."}, "[3]": {"molecular_target": "T1, E129V mutant human TP receptor", "assay": "[3H]SQ29,548 radioligand binding (mixed-type and heterologous competition), E129V mutant", "details": "HEK293 cells", "method": "as §1, §2, §3"}, "[4]": {"molecular_target": "T3, double mutant E129V/E240V of human TP receptor (Homo sapiens, UniProt P21731, E129V/E240V)", "T3 construct": "expressed in transfected cells; host or cells: HEK293", "T3 sequence (P21731 1-343 E129V/E240V)": "T1 sequence (P21731 1-343 E129V) with E240V", "assay": "Total inositol phosphate (IP) accumulation, E129V/E240V double mutant, rescue with SQ29,548", "type": "cell-based", "details": "HEK293 cells, E129V/E240V double mutant after rescue with 1 µM SQ29,548 for 18 h; ±33%CV", "method": "Receptor expression and functional activity were monitored 48 hours after transfection. […] Heterologous competition studies involved concentrations of the indicated unlabeled ligands extending from 0.1 nM to 30 µM. After 30 min incubation at 25 °C, the reaction was stopped by aspiration of the medium, cells were washed with ice-cold PBS containing 0.2% (w/v) BSA and lysed in 0.5 N NaOH. Radioactivity was measured by liquid scintillation counting. Binding data were analyzed as described in Data and Statistical Analysis. Quantification of the total labeled inositol phosphates (IP) accumulation was performed using a conventional gravity flow column chromatography, as described previously, [19]. […] The total IP fraction was then eluted with 2 M ammonium formate/formic acid buffer at pH 5 and radioactivity determined by liquid scintillation counting. […]\nAll average results are presented as mean±S.E. When indicated, ANOVA followed by post-hoc test for multiple comparisons was performed. Data from radioligand binding were evaluated by a nonlinear, least-squares curve-fitting procedure using GraphPad Prism version 4, implemented with the n-ligand m-binding site model, as described in the LIGAND computer program. Concentration-response curves were evaluated using Prism 4, which use the four parameters logistic model as described in the ALLFIT program. […]"}, "[5]": {"molecular_target": "T1, E129V mutant human TP receptor", "assay": "BRET2 measurement of Gq protein activation, E129V mutant", "type": "cell-based", "details": "HEK293 cells", "method": "as §2"}}, "note": "Where a chain is given by its changes, count along the chain named. “And” between values parts separate entries of the source, which are not always exact repeats. Equal entries are not always repeated.", "data": [{"compound": "CCCCC[C@H](O)/C=C/[C@@H]1[C@@H](C/C=C\\CCCC(=O)O)[C@H]2CO[C@@H]1C2", "note": "(relative stereo) [U46619, [1R-[1α,4α,5β(Z),6α(1E,3S*)]]-7-[6-(3-hydroxy-1-octenyl)-2-oxabicyclo[2.2.1]hept-5-yl]-5-heptenoic acid]", "values": [{"measurement": "Fold lower EC50 than WT, total IP formation", "setting": "[1]", "value": 10, "unit": "fold"}, {"measurement": "Ki", "setting": "[2]", "value": "170 ± 13", "unit": "nM"}, {"measurement": "Ki", "setting": "[3]; E129V, competition vs 1 nM [3H]SQ29,548, 25°C 30 min, value ±%CV", "value": "16.3 ± 18", "unit": "nM"}, {"measurement": "Affinity ratio (Ki WT over Ki E129V)", "setting": "[3]; WT vs E129V", "value": "10 and 10.4"}, {"measurement": "EC50", "setting": "[4]", "value": 1.66, "unit": "nM"}, {"measurement": "EC50", "setting": "[5]; E129V, Gαq-Rluc8/GFP10-Gγ2/Gβ1, 2 min ligand, value ±%CV", "value": 4.53, "unit": "nM"}, {"measurement": "Activity ratio (EC50 WT over EC50 E129V), BRET", "setting": "[5]; WT vs E129V", "value": 76}]}]}
